One data set can be described thus: in vivo. Particulars: male, Balb, Nu/Nu, mouse, plasma, 10 mg/kg; for Vd / clearance: iv; for AUC / Cmax / half-life: po.
For data set [1] the following is noted: mouse, 10 mg/kg, oral vs IV dose-normalized plasma AUC.
Data set [2] relates to Capan-1 human pancreatic cancer tumors. Particulars: for T − C: time to reach 1 g.
The subject of data set [3] is BRCA mutations and breast, ovarian and prostate cancer. The settings on record: 19 patients with BRCA mutations and breast, monotherapy; cited from earlier work.
Where [4] appears, read: cpd. 1 100 mg/kg oral daily, days 1 to 14.
Where [5] appears, read: temozolomide 50 mg/kg oral, days 3, 4, 5, 6, 7 and 8.

Where two headings read alike, the source gives them in different places.

As to `NCCOc1c(-c2ccc(Cl)c(Cl)c2)[nH]c(=O)c2cc(F)ccc12` [Compound 14, 4-(2-Amino-ethoxy)-3-(3,4-dichloro-phenyl)-7-fluoro-2H-isoquinolin-1-one], in “in vivo”, the distribution volume (Vd) came out at 4.2 L/kg, the clearance was determined as 20.5 mL/min/kg, the AUC turned out to be 20.3 µM·h and the highest level (Cmax) was 2800 nM. In addition, the half-life in the data set “in vivo” was 3.5 h. Also, the “F on AUC” value in data set [1] turned out to be 136%.

As to `Cl.NCCOc1c(-c2ccc(Br)cc2)[nH]c(=O)c2cc(F)ccc12` [Compound 1, 4-(2-Amino-ethoxy)-3-(4-bromo-phenyl)-7-fluoro-2H-isoquinolin-1-one hydrochloride], in data set [2] (setting [4]), the “BWL (%)” value came to 3%, the “TGI (%)” value was found to be 21%, the Toxicity is recorded as 0/7 and the “T − C” value worked out at 4 days. In the data set “in vivo”, this molecule displayed a Vd of 3.6 L/kg, a clearance of 12 mL/min/kg, an AUC of 27 µM·h and a Cmax of 6000 nM. The same molecule showed a half-life in “in vivo” of 3.9 h. Further, in data set [1], the “F on AUC” value stood at 107%.

In “in vivo”, `Cc1cc(-c2[nH]c(=O)c3cc(F)ccc3c2OCCN)ccc1Cl.Cl` [Compound 13, 4-(2-Amino-ethoxy)-3-(4-chloro-3-methyl-phenyl)-7-fluoro-2H-isoquinolin-1-one hydrochloride] yielded a Vd of 5.7 L/kg, a clearance of 45 mL/min/kg, an AUC of 10 µM·h and a Cmax of 2000 nM. In the data set “in vivo”, this molecule showed a half-life of 3 h. The “F on AUC” value in data set [1] is 128%.

As to `Cl.NCCOc1c(-c2ccc(N3CCOCC3)c(Br)c2)[nH]c(=O)c2cc(F)ccc12` [Compound 4, 4-(2-Amino-ethoxy)-3-(3-bromo-4-morpholin-4-yl-phenyl)-7-fluoro-2H-isoquinolin-1-one hydrochloride], in the data set “in vivo”, the Vd came to 7.8 L/kg, the clearance is 44.5 mL/min/kg, the exposure (AUC) came to 5.6 µM·h and the highest concentration (Cmax) stood at 3000 nM. In “in vivo”, the half-life was 1.43 h. In data set [1], the “F on AUC” value amounted to 83%.

In the case of `Cn1nnc2c(C(N)=O)ncn2c1=O` [temozolomide, reference compound], in data set [2] (setting [5]), the “BWL (%)” value is listed as 2.5%, the “TGI (%)” value is recorded as 13%, the Toxicity is recorded as 0/7 and the “T − C” value was found to be 1 days.

In the case of `O=C(c1cc(Cc2n[nH]c(=O)c3ccccc23)ccc1F)N1CCN(C(=O)C2CC2)CC1` [Olaparib], the objective response rate in data set [3] is 47%.

For `Cl.NCCOc1c(-c2ccc(Br)cc2)[nH]c(=O)c2c(F)c(F)ccc12` [Compound 12, 4-(2-Amino-ethoxy)-3-(4-bromo-phenyl)-7,8-difluoro-2H-isoquinolin-1-one hydrochloride], in the data set “in vivo”, the Vd is 4.5 L/kg, the clearance was 46.3 mL/min/kg, the AUC turned out to be 8.15 µM·h and the highest level (Cmax) was 3150 nM. Also, the half-life in the data set “in vivo” was 1.77 h. Further, the “F on AUC” value in data set [1] came out at 109%.

In “in vivo”, `Cl.NCCOc1c(-c2ccc(Cl)cc2)[nH]c(=O)c2cc(F)ccc12` [Compound 8, 4-(2-Amino-ethoxy)-3-(4-chloro-phenyl)-7-fluoro-2H-isoquinolin-1-one hydrochloride] had a Vd of 5.2 L/kg, a clearance of 28.2 mL/min/kg, an exposure (AUC) of 7.5 µM·h and a peak concentration (Cmax) of 2850 nM. This molecule also gave a half-life in the data set “in vivo” of 3 h. For the same molecule, the “F on AUC” value in data set [1] is on record as 74%.

In the data set “in vivo”, `COc1ccc(-c2[nH]c(=O)c3cc(F)ccc3c2OCCN)cc1F.Cl` [Compound 21, 4-(2-Amino-ethoxy)-7-fluoro-3-(3-fluoro-4-methoxy-phenyl)-2H-isoquinolin-1-one hydrochloride] returned a Vd of 6.5 L/kg, a clearance of 45.4 mL/min/kg, an exposure (AUC) of 10.5 µM·h and a Cmax of 4600 nM. The molecule also showed a half-life in “in vivo” of 3.9 h. The “F on AUC” value in data set [1] is 133%.

For orientation: Vd means a proportionality between amount in the body and measured concentration, not a real space. The low end stands for little distribution into tissue, the high end for wide distribution into tissue. By clearance is commonly meant the volume of plasma or blood freed of the substance per unit of time. Higher therefore signals efficient removal. By AUC is commonly meant the area under the concentration-time curve, a measure of exposure. Higher therefore signals more exposure. The term Cmax denotes the peak of the concentration-time curve. Broadly, the half-life is the time in which the quantity being followed falls by half.

The values above are taken from patent publication US9422243B2 (priority 2011, dated 2016).
